Biological target: T1, human BLT1 receptor (Homo sapiens, UniProt Q15722)
T1 construct: expressed in transfected cells; host or cells: HEK293
Assay: BLT-1 cAMP Assay
Format: cell-based
Settings: HEK293 cells recombinantly expressing human BLT1; antagonist activity vs forskolin 4 μM and LTB4 2 nM; cAMP (CisBio kit)
Description: The ability of compounds to antagonize the human BLT1 receptor was determined using a kit to measure changes in intracellular cyclic AMP levels (cAMP dynamic assay kit, Cisbio Cat. No. 62AM4PEC). […] The cell suspension was centrifuged at 200×g for 10 min and then resuspended in fresh assay medium to a density of 2.5×10^5 cells/mL. […] All subsequent liquid additions were performed using a BIORAPTR (FRD; Beckman Coulter). Next, 5 μL of cell suspension was added and incubated for 20 min. at 37° C. and 5% CO2 in a humidified plastic tray.
The levels of cAMP were detected using the CisBio kit following the manufacturer's instructions: cAMP-d2 vial was reconstituted with distilled water and then diluted accordingly with conjugate & lysis buffer. 5 µL of cAMP-d2 working solution was added to all of the wells of the assay plate. cAMP-Cryptate vial was reconstituted with distilled water and then diluted accordingly with conjugate & lysis buffer. 5 µL of cAMP-Cryptate working solution were added to the assay plate. The assay plate was shaken for 3 minutes and incubated at room temperature for 45 minutes, then read on Perkin Elmer Envision. cAMP standard curve and fit data were plotted using a 4 parameter dose response curve fitting algorithm to fit curve. […] After normalization to treated and untreated controls, the percent effect of signal at each compound concentration was calculated. The plot of percent effect versus the log of compound concentration was fit with a 4-parameter concentration response equation to calculate EC50 values.

T1 sequence (Q15722 whole entry): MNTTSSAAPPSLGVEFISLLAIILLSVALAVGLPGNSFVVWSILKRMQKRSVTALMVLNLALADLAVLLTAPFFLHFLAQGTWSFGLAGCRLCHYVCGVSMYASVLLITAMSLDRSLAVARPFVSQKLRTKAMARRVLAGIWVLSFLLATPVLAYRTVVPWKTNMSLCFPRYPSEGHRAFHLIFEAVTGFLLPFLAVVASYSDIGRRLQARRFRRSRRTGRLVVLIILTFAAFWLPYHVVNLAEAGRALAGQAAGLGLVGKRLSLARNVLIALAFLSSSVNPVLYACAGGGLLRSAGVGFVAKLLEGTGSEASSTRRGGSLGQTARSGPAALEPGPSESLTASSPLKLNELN

| SMILES | EC50 |
| --- | --- |
| O=S(=O)(Nc1ccccc1-c1ccc2c(c1)OCC(Cc1ccccc1)C2O)C(F)(F)F (racemic) [Example 2, N-(2-((3,4-Rac-trans)-3-benzyl-4-hydroxychroman-7-yl)phenyl)-1,1,1-trifluoromethanesulfonamide] | 31 nM |
| O=S(=O)(Nc1ccccc1-c1ccc2c(c1)OC[C@@H](Cc1ccc(-c3ccccc3)cc1)[C@H]2O)C(F)(F)F (racemic) [Example 3, N-(2-((3,4-Rac-cis)-3-([1,1′-biphenyl]-4-ylmethyl)-4-hydroxychroman-7-yl)phenyl)-1,1,1-trifluoromethanesulfonamide] | 2290 nM |
| O=S(=O)(Nc1ccccc1-c1ccc2c(c1)OC[C@@H](Cc1ccc(-c3ccccc3)cc1)[C@@H]2O)C(F)(F)F (racemic) [Example 4, N-(2-((3,4-Rac-trans)-3-([1,1′-biphenyl]-4-ylmethyl)-4-hydroxychroman-7-yl)phenyl)-1,1,1-trifluoromethanesulfonamide] | 6 nM |
| O=S(=O)(Nc1ccccc1-c1ccc2c(c1)OCC(Cc1ccc(-c3ccccc3)s1)C2O)C(F)(F)F (racemic) [Example 5, 1,1,1-Trifluoro-N-(2-((3,4-rac-trans)-4-hydroxy-3-((5-phenylthiophen-2-yl)methyl)chroman-7-yl)phenyl)methanesulfonamide] | 9 nM |
| O=S(=O)(Nc1ccccc1-c1ccc2c(c1)OCC(Cc1cc[nH]n1)C2O)C(F)(F)F (racemic) [Example 6, N-(2-((3,4-Rac-trans)-3-((1H-pyrazol-3-yl)methyl)-4-hydroxychroman-7-yl)phenyl)-1,1,1-trifluoromethanesulfonamide] | 240 nM |
| O=S(=O)(Nc1ccccc1-c1ccc2c(c1)OCC(Cc1cccnc1)C2O)C(F)(F)F (racemic) [Example 7, 1,1,1-Trifluoro-N-(2-((3,4-rac-trans)-4-hydroxy-3-(pyridin-3-ylmethyl)chroman-7-yl)phenyl)methanesulfonamide] | 3510 nM |
| O=S(=O)(Nc1ccccc1-c1ccc2c(c1)OCC(Cc1ccsc1)C2O)C(F)(F)F (racemic) [Example 8, 1,1,1-Trifluoro-N-(2-((3,4-rac-trans)-4-hydroxy-3-(thiophen-3-ylmethyl)chroman-7-yl)phenyl)methanesulfonamide] | 21 nM |
| O=S(=O)(Nc1ccccc1-c1ccc2c(c1)OC[C@@H](Cc1cncs1)[C@@H]2O)C(F)(F)F (racemic) [Example 9, 1,1,1-Trifluoro-N-(2-((3,4-rac-trans)-4-hydroxy-3-(thiazol-5-ylmethyl)chroman-7-yl)phenyl)methanesulfonamide] | 269 nM |
| O=S(=O)(Nc1ccccc1-c1ccc2c(c1)OC[C@@H](Cc1cncs1)[C@H]2O)C(F)(F)F (racemic) [Example 10, 1,1,1-Trifluoro-N-(2-((3,4-rac-cis)-4-hydroxy-3-(thiazol-5-ylmethyl)chroman-7-yl)phenyl)methanesulfonamide] | 4540 nM |
| Cc1ccc(CC2COc3cc(-c4ccccc4NS(=O)(=O)C(F)(F)F)ccc3C2O)nc1 (racemic) [Example 11, 1,1,1-Trifluoro-N-(2-((3,4-rac-trans)-4-hydroxy-3-((5-methylpyridin-2-yl)methyl)chroman-7-yl)phenyl)methanesulfonamide] | 105 nM |
| O=S(=O)(Nc1ccccc1-c1ccc2c(c1)OCC(Cc1cn[nH]c1)C2O)C(F)(F)F (racemic) [Example 12, N-(2-((3,4-Rac-trans)-3-((1H-pyrazol-4-yl)methyl)-4-hydroxychroman-7-yl)phenyl)-1,1,1-trifluoromethanesulfonamide] | 1650 nM |
| Cn1nccc1CC1COc2cc(-c3ccccc3NS(=O)(=O)C(F)(F)F)ccc2C1O (racemic) [Example 13, 1,1,1-Trifluoro-N-(2-((3,4-rac-trans)-4-hydroxy-3-((1-methyl-1H-pyrazol-5-yl)methyl)chroman-7-yl)phenyl)methanesulfonamide] | 185 nM |
| O=S(=O)(Nc1ccccc1-c1ccc2c(c1)OC[C@H](Cc1cn(-c3ccccc3)nn1)[C@H]2O)C(F)(F)F (racemic) [Example 14, 1,1,1-Trifluoro-N-(2-{(rac-trans)-4-hydroxy-3-[(1-phenyl-1H-1,2,3-triazol-4-yl)methyl]-3,4-dihydro-2H-chromen-7-yl}phenyl)methanesulfonamide] | 101 nM |
| O=S(=O)(Nc1ccccc1-c1ccc2c(c1)OC[C@H](Cc1ncco1)[C@H]2O)C(F)(F)F (racemic) [Example 15, 1,1,1-Trifluoro-N-{2-[(rac-trans)-4-hydroxy-3-(1,3-oxazol-2-ylmethyl)-3,4-dihydro-2H-chromen-7-yl]phenyl}methanesulfonamide] | 994 nM |
| Cc1nc(C[C@@H]2COc3cc(-c4ccccc4NS(=O)(=O)C(F)(F)F)ccc3[C@H]2O)cs1 (racemic) [Example 16, 1,1,1-Trifluoro-N-(2-{(rac-trans)-4-hydroxy-3-[(2-methyl-1,3-thiazol-4-yl)methyl]-3,4-dihydro-2H-chromen-7-yl}phenyl)methanesulfonamide] | 826 nM |
| O=S(=O)(Nc1ccccc1-c1ccc2c(c1)OC[C@H](Cc1ncccc1F)[C@H]2O)C(F)(F)F (racemic) [Example 19, 1,1,1-Trifluoro-N-(2-{(rac-trans)-3-[(3-fluoropyridin-2-yl)methyl]-4-hydroxy-3,4-dihydro-2H-chromen-7-yl}phenyl)methanesulfonamide] | 1600 nM |
| Cc1cccc(C[C@H]2COc3cc(-c4ccccc4NS(=O)(=O)C(F)(F)F)ccc3[C@@H]2O)n1 (racemic) [Example 20, 1,1,1-Trifluoro-N-(2-{(rac-trans)-4-hydroxy-3-[(6-methylpyridin-2-yl)methyl]-3,4-dihydro-2H-chromen-7-yl}phenyl)methanesulfonamide] | 215 nM |
| Cc1nnc(C[C@H]2COc3cc(-c4ccccc4NS(=O)(=O)C(F)(F)F)ccc3[C@@H]2O)s1 (racemic) [Example 23, 1,1,1-Trifluoro-N-(2-{(rac-trans)-4-hydroxy-3-[(5-methyl-1,3,4-thiadiazol-2-yl)methyl]-3,4-dihydro-2H-chromen-7-yl}phenyl)methanesulfonamide] | 32 nM |
| O=S(=O)(Nc1ccccc1-c1ccc2c(c1)OC[C@H](Cc1csc(-c3ccccc3)n1)[C@H]2O)C(F)(F)F (racemic) [Example 24, 1,1,1-Trifluoro-N-(2-((rac-trans)-4-hydroxy-3-((2-phenylthiazol-4-yl)methyl)chroman-7-yl)phenyl)methanesulfonamide] | 329 nM |
| O=S(=O)(Nc1ccccc1-c1ccc2c(c1)OC[C@H](Cc1cnccn1)[C@H]2O)C(F)(F)F (racemic) [Example 27, 1,1,1-Trifluoro-N-{2-[(rac-trans)-4-hydroxy-3-(pyrazin-2-ylmethyl)-3,4-dihydro-2H-chromen-7-yl]phenyl}methanesulfonamide] | 209 nM |
| O=S(=O)(Nc1ccccc1-c1ccc2c(c1)OC[C@H](Cc1cccnn1)[C@H]2O)C(F)(F)F (racemic) [Example 28, 1,1,1-Trifluoro-N-{2-[(rac-trans)-4-hydroxy-3-(pyridazin-3-ylmethyl)-3,4-dihydro-2H-chromen-7-yl]phenyl}methanesulfonamide] | 2140 nM |
| O=S(=O)(Nc1ccccc1-c1ccc2c(c1)OC[C@H](Cc1ccc(F)cn1)[C@H]2O)C(F)(F)F (racemic) [Example 29, 1,1,1-Trifluoro-N-(2-((rac-trans)-3-((5-fluoropyridin-2-yl)methyl)-4-hydroxychroman-7-yl)phenyl)methanesulfonamide] | 464 nM |
| CS(=O)(=O)Nc1ccccc1-c1ccc2c(c1)OCC(Cc1ccccn1)C2O (racemic) [Example 30, N-(2-((3,4-Rac-trans)-4-hydroxy-3-(pyridin-2-ylmethyl)chroman-7-yl)phenyl)methanesulfonamide] | 414 nM |
| O=S(=O)(Nc1ccccc1-c1ccc2c(c1)OC[C@@H](Cc1cscn1)[C@H]2O)C(F)(F)F (racemic) [Example 31, 1,1,1-trifluoro-N-(2-(3,4-rac-cis)-4-hydroxy-3-(thiazol-4-ylmethyl)chroman-7-yl)phenyl)methanesulfonamide] | 1370 nM |
| O=S(=O)(Nc1ccccc1-c1ccc2c(c1)OC[C@@H](Cc1cscn1)[C@@H]2O)C(F)(F)F (racemic) [Example 32, 1,1,1-trifluoro-N-(2-((3,4-rac-trans)-4-hydroxy-3-(thiazol-4-ylmethyl)chroman-7-yl)phenyl)methanesulfonamide] | 17 nM |
| O=S(=O)(Nc1ccccc1-c1ccc2c(c1)OCC(Cc1cccs1)C2O)C(F)(F)F (racemic) [Example 33, 1,1,1-Trifluoro-N-(2-((3,4-rac-trans)-4-hydroxy-3-(thiophen-2-ylmethyl)chroman-7-yl)phenyl)methanesulfonamide] | 53 nM |
| O=S(=O)(Nc1ccccc1-c1ccc2c(c1)OCC(Cc1cc3ccccc3s1)C2O)C(F)(F)F (racemic) [Example 34, N-(2-((3,4-rac-trans)-3-(benzo[b]thiophen-2-ylmethyl)-4-hydroxychroman-7-yl)phenyl)-1,1,1-trifluoromethanesulfonamide] | 44 nM |

— patent US12264139B2, “Aryl sulfonamides as BLT1 antagonists” (Merck Sharp & Dohme LLC, priority 2015, dated 2025)
